# Like-named read-outs stand apart in the source and are kept apart here.
# Legend:
# Format in all cases: cell-based
# [1] = system: Trypanosoma brucei rhodesiense (strain STIB900); test: In vitro drug activity assay, protozoon B (bloodstream form trypomastigotes, Alamar Blue); details: incubated for 72 hours
# Protocol: Trypanosoma brucei rhodesiense STIB900 bloodstream form trypomastigotes were maintained in HMI-18 medium (Hirumi H, Hirumi K, J Parasitol. 1989, 75(6):985-989) with 15% heat-inactivated fetal calf serum at 37°C, 5% CO2, humidified atmosphere. Trypomastigotes were washed and resuspended in fresh medium at a concentration of 2 x 10^5 mL. Test compounds were given to the trypomastigotes and plates were incubated for 72 hours at 37°C, 5% CO2, humidified atmosphere. At 72 hours the plates were assessed microscopically before Alamar Blue was added (Raz et al., Acta Trop. 1997, 68: 139-147). Plates were read after 5 to 6 hours at EX/EM 530/585 nm with a filter cutoff at 550 nm. ED50 values were calculated with Msxlfit (IDBS).
# (§1) The following protozoa were assessed: • A) Trypanosoma cruzi (Tulahuan-LACZ amstigotes in PEM, Lorente SO et al., Antimicrobial agents and chemotherapy 2004, 48(8): 2937-2950; Buckner et al., Infection and Immunity 1999, 67(1): 403-409; Buckner et al., Antimicrobial Agents and Chemotherapy 1996, 40(11): 2592-2597) • B) Trypanosoma brucei rhodesiense (strain STIB900, Lorente SO et al., Antimicrobial agents and chemotherapy 2004, 48(8): 2937-2950; Habtemariam S, BMC Pharmacology 2003, 3:6) • C) Plasmodium falciparum (strain K1, Korsinczky M et al., Antimicrobial agents and chemotherapy 2000, 44(8): 2100-2108; Thaitong S and Beale GH, Trans. R. Soc. Trop. Med. Hyg. 1981, 75: 271-273; Trager W and Jensen JB, Science 1976, 193: 673-675) • D) Plasmodium falciparum (strain 3D7, Mu et al., PLoS Biology 2005, 3(10): e335)
# [2] = system: Plasmodium falciparum (strain K1); test: In vitro drug susceptibility assay, protozoon C (3[H]-hypoxanthine method)
# Protocol: (§2) Plasmodium falciparum strain K1 and strain 3D7 parasites were cultured according to Trager W and Jensen JB (Science 1976, 193: 673-675). In vitro drug susceptibility assays with the test compounds were carried out according to Korsinczky M et al. (Antimicrobial agents and chemotherapy 2000, 44(8): 2100-2108) and Fivelman QL et al. (Antimicrobial agents and chemotherapy 2004, 48(11): 4097-4102) using a ^3[H]-hypoxanthine radioisotope method. ED50 values were calculated with Msxlfit (IDBS).
# as §1
# [3] = system: Plasmodium falciparum (strain 3D7); test: In vitro drug susceptibility assay, protozoon D (3[H]-hypoxanthine method)
# Protocol: as §2, §1
# [4] = system: Cryptocoocus neoformans (ATCC 90112); test: Anti-fungal susceptibility test (microdilution), fungus E
# Protocol: (§3) The antifungal activities of the test compounds (compounds of the invention and known prior art compounds) were measured according to standard microdilution methods (Cryptococcus/Aspergillus: Ghannoum et al., Journal of Clinical Microbiology 1992, 30 (11): 2881-2886; Candida: Reference method for broth dilution susceptibility testing of yeast: proposed standard, NCCLS document M27-P, National Committee for Clinical Laboratory Standards 1992, Villanova, Pa).
# (§4) A serial dilution series starting from 64 µg/mL test compound per well down to 0.125 µg/mL test compound per well was applied for each test compound on each fungus. The MIC of each compound was defined as the concentration which produces no visible growth after 48 hours (Candida) and 72 hours (Cryptococcus, Aspergillus) of culture at 35° C.
# (§5) The following fungi were assessed: • A) Candida albicans (ATCC 10231) • B) Candida albicans (ATCC 90028) • C) Candida albicans (strain TS3, Shrikantha et al., Journal of Bacteriology 2000, 182(6):1580-1591) • D) Candida parapsilosis (ATCC 22019) • E) Cryptocoocus neoformans (ATCC 90112) • F) Cryptocoocus neoformans (strain H99; Ganendren et al., Antimicrobial Agents and Chemotherapy, 2004, 48(5):1561-1569) • G) Cryptocoocus gattii (ATCC 32608) • H) Aspergillus fumigatus (ATCC 204305) • I) Aspergillus fumigatus (strain 322-384)
# [5] = system: Aspergillus fumigatus (strain 322-384); test: Anti-fungal susceptibility test (microdilution), fungus I; details: no visible growth after 72 hours at 35° C
# Protocol: as §3, §4, §5
# [6] = system: Candida albicans (ATCC 90028); test: Anti-fungal susceptibility test (microdilution), fungus B
# Protocol: as §3, §4, §5
# [7] = system: Cryptocoocus gattii (ATCC 32608); test: Anti-fungal susceptibility test (microdilution), fungus G; details: fungus G; no visible growth after 72 hours at 35° C; read-out: MIC
# Protocol: as §3, §4, §5
# [8] = system: Candida parapsilosis (ATCC 22019); test: Anti-fungal susceptibility test (microdilution), fungus D
# Protocol: as §3, §4, §5
# [9] = system: Aspergillus fumigatus (ATCC 204305); test: Anti-fungal susceptibility test (microdilution), fungus H
# Protocol: as §3, §4, §5
# [10] = system: Candida albicans (ATCC 10231); test: Anti-fungal susceptibility test (microdilution), fungus A
# Protocol: as §3, §4, §5
# [11] = system: Cryptocoocus neoformans (strain H99); test: Anti-fungal susceptibility test (microdilution), fungus F; details: fungus F; no visible growth after 72 hours at 35° C; read-out: MIC
# Protocol: as §3, §4, §5
# [12] = system: Candida albicans (strain TS3); test: Anti-fungal susceptibility test (microdilution), fungus C; details: no visible growth after 48 hours at 35° C
# Protocol: as §3, §4, §5
# [13] = system: RKOp21 (human colon adenocarcinoma) cells; test: XTT cytotoxicity assay, RKOp21 cells; details: 48 h, 2 days of continuous drug exposure
# Protocol: (§6) Human tumor cell lines KB/HeLa (ATCC CCL17, human cervix carcinoma), PC3 (ATCC CRL1435, human prostate carcinoma) and RKOp21 (human colon adenocarcinoma) cells were used in an automated XTT screening assay for the assessment of cytotoxicity.
# (§7) The XTT assay quantifies cellular metabolic activity which correlates with cell viability and cell number. Test compounds (selected compounds of the invention and known substances as controls) are dissolved in culture medium at 600µM and added to the tumor cells in 10 different concentrations in a semi-logarithmic fashion starting from 100 µM as highest concentration.
# (§8) 48h later cellular metabolic activity of cells treated with test compounds is quantified by measurement of the absorbance at 490nm (conversion of XTT dye) in comparison to untreated control cells (100% viability).
# (§9) KB/HeLa and PC3 cells were cultivated in RPMI medium supplemented with 10% heat inactivated fetal calf serum, 2 mM glutamine, 100 U/ml penicillin, and 100 µg/ml streptomycin. RKOp21 cells were grown in DMEM supplemented with 10% heat inactivated fetal calf serum, 2 mM glutamine, 100 U/ml penicillin, and 100 µg/ml streptomycin. All cells were cultured at 37°C in 5% CO2 humidified air.
# (§10) On the first day of the experiment cells were harvested from exponential phase cultures by trypsination, counted and plated into 96 well flat-bottom micro titer plates depending on the cell line as listed below:
# (§11) After a 24h recovery to allow the cells to resume exponential growth, the test compounds were diluted immediately prior to use and transferred in 25µl volume to the wells.
# (§12) Following 2 days of continuous drug exposure 50µl of freshly prepared XTT-PMS solution (2% […] PMS in PBS + 98% 1 mg/ml XTT in RPMI 1640 without phenol red) was added to the wells. To measure the proportion of living cells, the cells were incubated for 3 h with XTT-PMS reagent at 37°C, 5% CO2, humidified atmosphere allowing to form the formazan salt. The amount of soluble formazan salt produced by cellular reduction of XTT is quantified by measuring the absorbance at 490nm using the Biomek® 2000 ELISA plate reader.
# (§13) %-inhibition (cytotoxicity) of each test compound was calculated in relation to untreated control cells. Inhibition curves were generated and IC50 values calculated by using GraphPad Prism.
# [14] = system: KB/HeLa (ATCC CCL17, human cervix carcinoma); test: XTT cytotoxicity assay, KB/HeLa cells; details: 48 h, 2 days of continuous drug exposure
# Protocol: as §6, §7, §8, §9, §10, §11, §12, §13
# [15] = system: PC3 (ATCC CRL1435, human prostate carcinoma); test: XTT cytotoxicity assay, PC3 cells; details: PC-3, 48 h, 2 days of continuous drug exposure
# Protocol: as §6, §7, §8, §9, §10, §11, §12, §13
# [16] = system: Trypanosoma cruzi (Tulahuan-LACZ amstigotes in PEM); test: In vitro drug activity assay, protozoon A (amastigotes in murine peritoneal macrophages, CPRG readout); details: infected macrophages exposed for 3 days
# Protocol: Murine (CD1) peritoneal macrophages were harvested 24 hours after starch induction and dispensed into 96-well plates at a concentration of 4 x 10^5 mL. After 24 hours, the cells were infected with Trypanosoma cruzi Tulahuan LAC-Z amastigotes (grown and cultured according to Buckner et al., Infection and Immunity 1999, 67(1): 403-409). 24 hours later, the infected cells were exposed to the test compounds (compounds of the invention as well as known prior art compounds) for 3 days and 50 µL of 500 µM CPRG-1% Nonidet P-40 was added to each well. The plates were read after 2 to 5 hours at 570 nm (Buckner et al., Antimicrobial Agents and Chemotherapy 1996, 40(11): 2592-2597). ED50 values were calculated with Msxlfit (IDBS).
# as §1
# [17] = Aspergillus fumigatus, read-out: MIC
# [18] = Candida albicans, ATCC90028, no visible growth after 48 hours at 35° C, read-out: MIC
# [19] = ATCC22019, no visible growth after 48 hours at 35° C, read-out: MIC
# [20] = Aspergillus fumigatus, ATCC204305, no visible growth after 72 hours at 35° C, read-out: MIC
# [21] = Candida albicans, ATCC10231, no visible growth after 48 hours at 35° C, read-out: MIC
# [22] = Candida albicans, read-out: MIC
# [23] = no visible growth after 48 hours at 35° C
smiles,measurement,setting,value
"CCCCCCCCCCCCCCCCOP(=O)([O-])OC1CC[N+](C)(CCc2ccccc2)CC1 (centres unmarked) [Compound 4, Phosphoric acid 1-methyl-1-phenethyl-piperidin-4-yl ester hexadecyl ester]",ED50 (µg/mL),[1],"12,29 µg/mL"
same,ED50 (µg/mL),[2],"5,44 µg/mL"
same,ED50 (µg/mL),[3],"15,32 µg/mL"
"CCCCCCCCCCCCCCCCOCCCOP(=O)([O-])OCC[N+](C)(C)C [Compound 8, Phosphoric acid 3-hexadecyloxy-propyl ester 2-trimethylammonium-ethyl ester]",MIC,"[4]; fungus E, no visible growth after 72 hours at 35° C, read-out: MIC",2 µg/mL
same,MIC,[5]; [17],2 µg/mL
same,MIC,[6]; [18],0.75 µg/mL
same,MIC,[7],0.75 µg/mL
same,MIC,[8]; [19],0.75 µg/mL
same,MIC,[9]; [20],2 µg/mL
same,MIC,[10]; [21],0.75 µg/mL
same,MIC,[11],1.5 µg/mL
same,MIC,[12]; [22],1 µg/mL
"CCCCCCCC/C=C\CCCCCCCCCCCCOP(=O)([O-])OC1CC[N+](C)(C)CC1 [Compound 17, Phosphoric acid 1,1-dimethyl-piperidin-4-yl ester (Z)-docos-13-enyl ester]",IC50,[13],32.5 µM
same,IC50,[14],16.6 µM
same,IC50,[15],18.3 µM
"CCCCCCCC/C=C\CCCCCCCCOP(=O)(O)OCCN1CCCCC1 [Compound 19, Phosphoric acid (Z)-octadec-9-enyl ester 2-piperidin-1-yl-ethyl ester]",IC50,[13],> 100 µM
same,IC50,[14],> 100 µM
same,IC50,[15],> 100 µM
"CCCCCCCCCCOCCOCCOP(=O)([O-])OCC[N+]1(C)CCCCC1 [Compound 20, Phosphoric acid 2-(2-decyloxy-ethoxy)-ethyl ester 2-(1-methylpiperidin-1-yl)-ethyl ester]",IC50,[13],> 100 µM
same,IC50,[14],> 100 µM
same,IC50,[15],> 100 µM
CCCCCCCCCCCCCCCCCCOP(=O)([O-])OCC[As+](C)(C)C [Compound 22],MIC,[5],2 µg/mL
same,MIC,[6]; [23],1 µg/mL
same,MIC,[8]; [23],1 µg/mL
same,MIC,[9]; no visible growth after 72 hours at 35° C,4 µg/mL
same,MIC,[10]; [23],0.5 µg/mL
same,MIC,[12],1 µg/mL
"CCCCCCCC/C=C\CCCCCCCCCCCCOP(=O)([O-])OCC[N+](C)(C)C [ErPC, (13Z)-docosenylphosphocholine, reference compound]",MIC,[4]; 72 h,4 µg/mL
same,MIC,[5]; [17],> 64 µg/mL
same,MIC,[6]; [18],> 64 µg/mL
same,MIC,[7],1.5 µg/mL
same,MIC,[8]; [19],> 64 µg/mL
same,MIC,[9]; [20],> 64 µg/mL
same,MIC,[10]; [21],> 64 µg/mL
same,MIC,[11],3 µg/mL
same,MIC,[12]; [22],> 64 µg/mL
"O=C(Cn1ccnc1[N+](=O)[O-])NCc1ccccc1 [benznidazole, Benznidazole, reference compound]",ED50 (µg/mL),[16],"0,22 µg/mL"
"CCCCCCCCCCCCCCCCOP(=O)([O-])OCC[N+](C)(C)C [miltefosine, reference compound]",IC50,[13],18 µM
same,IC50,[14],8.66 µM
same,ED50 (µg/mL),[16],"0,63 µg/mL"
same,IC50,[15],9.39 µM
"CCCCCCCCCCCCCCCCCCOP(=O)([O-])OC1CC[N+](C)(C)CC1 [perifosine, octadecyl-1,1-dimethyl-piperidino-4-yl-phosphate, reference compound]",IC50,[13],3.31 µM
same,IC50,[14],2.37 µM
same,IC50,[15],3.22 µM

# From patent publication EP1800684A1, “Novel alkyl phospholipid derivatives and uses thereof” (Zentaris GmbH, priority 2005, dated 2007)
